Measured values reported in patent US5912352A, “Intermediates for the preparation of peptide analogues” (Novartis Finance Corporation, priority 1996, dated 1999).

What was measured:
HIV-1-protease = biological target: T1, HIV-1-protease (Human immunodeficiency virus type 1 group M subtype B, UniProt P04585); test: Inhibition of the proteolytic activity of HIV-1-protease (icosapeptide substrate, HPLC); assay type: biochemical; settings: icosapeptide RRSNQVSQNYPIVQNIQGRR 122 μM, 20 mM MES buffer pH 6.0, one hour at 37° C.; read-out: IC50 (concentration at which half the maximum inhibition of HIV-1-protease is found)
T1 construct: made in house
Protocol: In that procedure the inhibition of the action of HIV-1- protease (preparation: see S. Billich et al., J. Biol. Chem. 263 (34), 17905-17908 (1990)) is measured in the presence of the icosapeptide […] (a synthetic substrate of HIV-1-protease, prepared by peptide synthesis in accordance with known procedures (see J. Schneider et al., Cell 54, 363-368 (1988)), which contains as substrate analogue one of the cleavage sites of the gag-precursor protein (natural substrate of HIV-1-protease). That substrate and its cleavage products are analysed by high performance liquid chromatography (HPLC).
The test compound is dissolved in dimethyl sulfoxide. The enzymatic test is carried out by adding suitable dilutions of the inhibitor in 20 mM β-morpholinoethanesulfonic acid (MES) buffer pH 6.0 to the test mixture. That mixture consists of the above-mentioned icosapeptide (122 μM) in 20 mM MES buffer pH 6.0. 100 μl are used per test batch. The reaction is started by the addition of […] of HIV-1-protease solution and is stopped after one hour's incubation at 37° C. by the addition of 10 μl of 0.3M HClO4. After centrifugation of the sample at 10000×g for 5 minutes, 20 μl of the resulting supernatant are applied to a 125×4.6 mm Nucleosil® Cl8-5 μ HPLC column (reversed phase material supplied by Macherey & Nagel, Duren, FRG, based on silica gel that has been charged with C18 alkyl chains). The uncleaved icosapeptide and its cleavage products are eluted from the column by means of the following gradient: 100% eluant 1→50% eluant 1+50% eluant 2 (eluant 1:10% acetonitrile, 90% H2 O, 0.1% trifluoroacetic acid (TFA); eluant 2:75% acetonitrile, 25% H2 O, 0.08% TFA) over 15 minutes, throughflow rate 1 ml/min. The quantification of the eluted peptide fragments is carried out by measuring the peak height of the cleavage product at 215 nm.

HIV-1/MN = test: Inhibition of virus replication in MT-2 cells infected with HIV-1/MN (reverse transcriptase activity in supernatant); assay type: cell-based; settings: 4 days' incubation
Text: In a further test it can be shown that the title compound from Example 5 protects cells normally infected by HIV from such an infection or at least slows down such an infection. For this test, MT-2 cells infected with HIV-1/MN are used. MT-2 cells have been transformed with HTLV-1 (a virus causing leukaemia) and are a continuous producer thereof; they are therefore especially sensitive to the cytopathogenic effect of HIV. MT-2 cells can be obtained via the AIDS Research and Reference Reagent Program, Division of AIDS, NIAID, NIH from Dr. Douglas Richman (see J. Biol. Chem. 263, 5870-5875 (1988) and also Science 229, 563-566 (1985)). The MT-2 cells are cultured in RPMI 1640 medium (Gibco, Scotland; RPMI comprises an amino acid mixture without glutamine) supplemented with 10% heat-inactivated foetal calf serum, glutamine and standard antibiotics. […] The titre of the HIV-1/MN virus stock solution (determined by titration onto MT-2 cells) is 4.2×10^5 TClD50/ml (TClD50=Tissue Culture Infective Dose=dose that infects 50% of the MT-2 cells). […] Prior to the test, 0.1% (v/v) [alpha-^32 P]dTTP is added to aliquots of the solution in order to establish a radioactivity of 10 μCl/ml.
After mixing, the plate is incubated for 2 h at 37° C. […] The radioactivity on the filters is measured in a Matrix Packard 96-well counter (Packard, Zurich, Switzerland). […]

[1] = Plasma levels in mice after oral administration; assay type: in vivo, female BALB/c mice; settings: 120 mg/kg
Protocol: In order to determine its pharmacokinetics, the title compound from Example 5 is dissolved in dimethyl sulfoxide (DMSO) in a concentration of 240 mg/ml. The resulting solution is diluted 1:20 (v/v) with 20% (w/v) aqueous hydroxypropyl-β-cyclodextrin solution in order to obtain a concentration of the test compound of 12 mg/ml. The resulting solution is treated briefly with ultrasound and administered orally to female BALB/c mice (Bomholtgarden, Copenhagen, Denmark) by artificial tube feeding at a dose of 120 mg/kg. At fixed times (for example 30, 60, 90, 120 min) after administration, mice are sacrificed and the […] stored in heparinised test tubes. The blood is centrifuged (12000×g, 5 min) and the plasma removed. […] The precipitate is pelleted by centrifugation (12000×g, 5 min), and the concentration of the test compound is determined by reversed phase high performance liquid chromatography (HPLC).
The HPLC analysis of the samples obtained in accordance with the method described above is carried out on a 125×4.6 mm Nucleosil® C18 column (reversed phase material supplied by Macherey & Nagel, Duren, Germany, based on silica gel derivatised with hydrocarbon radicals having 18 carbon atoms), using a 2 cm long preliminary column containing the same column material. […] The test compound is detected by UV absorption measurement at 255 nm. […]

SMILES | IC50 (HIV-1-protease) [nM] | ED90 (concentration that reduces the RT activity by 90%; 90% inhibition of virus replication) (HIV-1/MN) [nM] | plasma level ([1]; 30 min after administration) [µM] | plasma level ([1]; 90 min after administration) [µM]
COC(=O)N[C@H](C(=O)N[C@@H](Cc1ccccc1)[C@@H](O)CN(Cc1ccc(-c2nnn(C)n2)cc1)NC(=O)[C@@H](NC(=O)OC)C(C)(C)C)C(C)(C)C [1-[4-(2-methyl-2H-tetrazol-5-yl)-phenyl]-4(S)-hydroxy-5(S)-2,5-bis[N-(N-methoxycarbonyl-(L)-tert-leucyl)amino]-6-phenyl-2-axahexane] | 51 | – | – | –
COC(=O)N[C@H](C(=O)N[C@@H](Cc1ccccc1)[C@@H](O)CN(Cc1ccc(-c2nccs2)cc1)NC(=O)[C@@H](NC(=O)OC)C(C)(C)C)C(C)(C)C [1-[4-(thiazol-2-yl)-phenyl]-4(S)-hydroxy-5(S)-2,5-bis[N-(N-methoxycarbonyl-(L)-tert-leucyl)amino]-6-phenyl-2-azahexane] | 33 | – | – | –
COC(=O)N[C@H](C(=O)N[C@@H](Cc1ccccc1)[C@@H](O)CN(Cc1ccc(-c2ccccn2)cc1)NC(=O)[C@@H](NC(=O)OC)C(C)(C)C)C(C)(C)C [Example 5, 1-[4-(Pyridin-2-yl)-phenyl]-4(S)-hydroxy-5(S)-2,5-bis[N-(N-methoxycarbonyl-(L)-tert-leucyl)-amino]-6-phenyl-2-azahexane] | 26 | 3 | 21.83 | 31.76
